Where two headings read alike, the source gives them in different places.
How the values were obtained:
Type in all cases: cell-based, human
[1] = test system: SFRS2 (splicing factor, arginine/serine-rich 2) gene; test: Real-time RT-PCR (TaqMan Gene Expression Assay) of SFRS2 gene in HCT116 cells; conditions: miRNA by electroporation, RNA after 48 hours, vs control miRNA, DAC 2 μM, 72 hours vs mock, FIG. 13B
[2] = test system: CDK4 (cyclin-dependent kinase 4) gene; test: Real-time RT-PCR (TaqMan Gene Expression Assay) of CDK4 gene in HCT116 cells; conditions: miRNA by electroporation, RNA after 48 hours, vs control miRNA, DAC 2 μM, 72 hours vs mock, FIG. 13B
[3] = test system: 9 colorectal cancer cell lines (CaCO2, Colo320, DLD1, HCT116, HT29, LoVo, RKO, SW48 and SW480); test: BTG4 expression by RT-PCR in colorectal cancer cell lines treated with DAC; conditions: DAC 2 μM, 72 hours, FIG. 14A
CDK4 = test: Western-blot analysis of CDK4 protein in HCT116 cell; conditions: anti-CDK4 antibody, vs control miRNA / mock, FIG. 13C
Text: (§1) Furthermore, for foregoing genes, changes in protein level were verified by western-blot analysis using an anti-MET antibody (MET), anti-CDK4 antibody (CDK4), anti-SFRS2 antibody (SFRS2), and anti-actin antibody as control (actin), as shown in FIG. 13C. […] The result above also indicates a more marked decrease in protein level than in RNA level.

[4] = test system: (v-myb myeloblastosis viral oncogene homolog) gene; conditions: HCT116 cells, DAC 2 μM, 72 hours vs mock, FIG. 13B
CCNE2 (Cyclin E2) gene = test: Real-time RT-PCR (TaqMan Gene Expression Assay) of CCNE2 gene in HCT116 cells; conditions: miRNA by electroporation, RNA after 48 hours, vs control miRNA, DAC 2 μM, 72 hours vs mock, FIG. 13B
[5] = test system: 9 colorectal cancer cell lines (CaCO2, Colo320, DLD1, HCT116, HT29, LoVo, RKO, SW48 and SW480); test: Expression analysis of miR-34b and miR-34c in colorectal cancer cell lines with DAC treatment; conditions: all 9 colorectal cancer cell lines
Text: DKO2 cell was used as a control, and U6 snRNA was used as an internal control.
The expression level of miRNA was converted to the ratio of the expression level of each miRNA to that of U6 snRNA (i.e., the expression level of each miRNA/the expression level of U6 snRNA) and analyzed.

SFRS2 = test: Western-blot analysis of SFRS2 protein in HCT116 cell; conditions: anti-SFRS2 antibody, vs control miRNA / mock, FIG. 13C
Text: as §1

[6] = test system: MET (hepatocyte growth factor receptor) gene; test: Real-time RT-PCR (TaqMan Gene Expression Assay) of MET gene in HCT116 cells; conditions: miRNA by electroporation, RNA after 48 hours, vs control miRNA, DAC 2 μM, 72 hours vs mock, FIG. 13B
HCT116 cell [7] = test: miR-34b/c expression in HCT116 cell treated with DAC and/or ADR; conditions: DAC 2 μM, 72 hours, ADR 0.5 μg/ml, 24 hours, FIG. 5A
Text: U6 snRNA was used as an internal control.

MET = test: Western-blot analysis of MET protein in HCT116 cell; conditions: anti-MET antibody, vs control miRNA / mock, FIG. 13C
Text: as §1

HCT116 cell [8] = test: Expression analysis of miRNAs (TaqMan miRNA Assay, real-time PCR) in HCT116 cell; conditions: DAC 2 μM, 72 hours
HCT116 cell [9] = test: Microarray analysis of gene expression in HCT116 cell; conditions: miRNA by electroporation, RNA after 48 hours, vs control miRNA, DAC 2 μM, 72 hours vs mock, FIG. 13A
Protocol: Firstly, in order to search for a gene whose expression is decreased by miR-34b/c expression, control miRNA (control miRNA (Ambion)), miR-34b (miR-34b precursor (Ambion)) and miR-34c (miR-34c precursor (Ambion)) were introduced into a HCT116 cell by electroporation, and after 48 hours RNA was extracted and subjected to microarray analysis.

p21 [10] = test: Western-blotting of p21 expression in HCT116 cell (WT); conditions: DAC 2 μM, 72 hours, ADR 0.5 μg/ml, 24 hours, FIG. 5C
Text: The expression of β-actin was confirmed as control, and the expression of p21 gene which is known as a representative target of p53 was similarly confirmed.

p53 [11] = conditions: p53-knockout HCT116 cell (p53KO); DAC 2 μM, 72 hours; ADR 0.5 μg/ml, 24 hours; FIG. 5C
p53-knockout HCT116 cell = test: miR-34b/c expression in p53-knockout HCT116 cell treated with DAC and/or ADR; conditions: HCT116 cell in which p53 gene has been knocked out; DAC 2 μM, 72 hours; ADR 0.5 μg/ml, 24 hours; FIG. 5B
p21 [12] = conditions: p53-knockout HCT116 cell (p53KO); DAC 2 μM, 72 hours; ADR 0.5 μg/ml, 24 hours; FIG. 5C
p53 [13] = conditions: HCT116 cell (WT); DAC 2 μM, 72 hours; ADR 0.5 μg/ml, 24 hours; FIG. 5C
[14] = miRNA by electroporation, RNA after 48 hours, vs control miRNA

| Molecule | mRNA expression level of SFRS2 gene [1] | mRNA expression level of CDK4 gene [2] | mRNA expression level of CCNE2 gene (CCNE2 (Cyclin E2) gene) | mRNA expression level of MET gene [6] | miR-34b/c expression (HCT116 cell [7]) | gene expression patterns (microarray) (HCT116 cell [9]) | mRNA expression level of MTB gene [4, 14] | further results |
| --- | --- | --- | --- | --- | --- | --- | --- | --- |
| Nc1ncn([C@H]2C[C@H](O)[C@@H](CO)O2)c(=O)n1 [DAC, 5-aza-2′-deoxycytidine] | decreased | decreased | decreased | decreased | induction of miR-34b/c expression was observed | also decreased by DAC treatment | – | mRNA expression of BTG4 gene [3]: markedly increased (restored); expression level of CDK4 protein (CDK4): decreased; mRNA expression level of MTB gene ([4]; […]): decreased; expression of miR-34b ([5]; FIG. 4A): induces the expression; expression of miR-34c ([5]; FIG. 4B): induces the expression; expression level of SFRS2 protein (SFRS2): decreased; expression level of MET protein (MET): decreased; expression of miRNAs (expression level of each miRNA/the expression level of U6 snRNA) (HCT116 cell [8]; 157 miRNAs compared, FIG. 2): induced the expression of 37 miRNAs; expression levels of miRNA34b and miR-34c (HCT116 cell [8]; FIG. 3A): restores their expression |
| miR-34c: miR-34c precursor (Ambion); matured type sequence AGGCAGUGUAGUUAGCUGAUUGC (SEQ ID NO: 4) (precursor form, further chemistry not given here) | decreased | decreased | decreased | decreased | – | a group of genes whose expression was decreased | decreased | – |
| miR-34b: miR-34b precursor (Ambion); matured type sequence UAGGCAGUGUCAUUAGCUGAUUG (SEQ ID NO: 2) (precursor form, further chemistry not given here) | decreased | decreased | decreased | decreased | – | a group of genes whose expression was decreased | decreased | – |
| COc1cccc2c1C(=O)c1c(O)c3c(c(O)c1C2=O)C[C@@](O)(C(=O)CO)C[C@@H]3O[C@H]1C[C@H](N)[C@H](O)[C@H](C)O1 [ADR, adriamycin] | – | – | – | – | induction of miR-34b/c expression was observed | – | – | expression of p21 gene, a p53 target (p21 [10]): also induced in similar pattern to that of p53; p53 expression (protein level) (p53 [11]): neither p53 nor p21 was changed at all; miR-34b/c expression (p53-knockout HCT116 cell): not at all; p21 expression (p21 [12]): neither p53 nor p21 was changed at all; p53 expression (protein level) (p53 [13]): induced by ADR treatment |

— patent US8841268B2, “Method and kit for detection of cancer, and therapeutic agent for cancer” (Sapporo Medical University, priority 2008, dated 2014)
